ChEMBL document CHEMBL5154741, “Antibacterial alkylguanidino ureas: Molecular simplification approach, searching for membrane-based MoA” (Eur J Med Chem, 2022)
The source made the active and inactive calls. No cut-off for these calls is given here.

Tests used:
Lipid bilayer [1] = test: Binding affinity to bacterial membrane mimic POPG large unilamellar vesicle assessed as hyperchromic shift at 125 uM measured after 1 hr by UV-Vis spectrophotometric analysis
Cell membrane [2] = test: Disruption of membrane integrity in Acinetobacter baumannii ATCC 17978 assessed as increase in PI uptake at 16 ug/ml measured after 15 mins by SYTO9/PI staining based fluorometric analysis; conditions: dose 16.0 µg/ml
Lipid bilayer [3] = test: Binding affinity to bacterial membrane mimic POPG large unilamellar vesicle assessed as bathochromic shift at 125 uM measured at t = 0 by UV-Vis spectrophotometric analysis
[4] = Apparent permeability of the compound across bacterial inner membrane mimic pure POPG in PBS buffer at pH 7.4 incubated for 5 hrs by PAMPA based UV-Vis spectrophotometric analysis; format: ADME
[5] = Apparent permeability of the compound across bacterial inner membrane mimic pure POPG in PBS buffer assessed as membrane retention at pH 7.4 incubated for 5 hrs by PAMPA based UV-Vis spectrophotometric analysis; format: ADME, cell membranes; conditions: pH 7.4, 5 h
[6] = Apparent permeability of the compound across bacterial inner membrane mimic POPE/POPG (6:4) in PBS buffer at pH 7.4 incubated for 5 hrs by PAMPA based UV-Vis spectrophotometric analysis; format: ADME
[7] = Apparent permeability of the compound across bacterial inner membrane mimic POPE/POPG (6:4) in PBS buffer assessed as membrane retention at pH 7.4 incubated for 5 hrs by PAMPA based UV-Vis spectrophotometric analysis; format: ADME, cell membranes; conditions: pH 7.4, 5 h
Cell membrane [8] = test: Disruption of membrane integrity in Bacillus subtilis ATCC 6633 assessed as increase in PI uptake at 16 ug/ml measured after 15 mins by SYTO9/PI staining based fluorometric analysis; conditions: dose 16.0 µg/ml
Cell membrane [9] = test: Disruption of membrane integrity in Pseudomonas aeruginosa ATCC 27853 assessed as increase in PI uptake at 16 ug/ml measured every 15 mins for 6 hrs by SYTO9/PI staining based fluorometric analysis; conditions: dose 16.0 µg/ml
Cell membrane [10] = test: Disruption of membrane integrity in Enterococcus faecalis ATCC 19433 assessed as increase in PI uptake at 16 ug/ml measured after 15 mins by SYTO9/PI staining based fluorometric analysis; conditions: dose 16.0 µg/ml
Cell membrane [11] = test: Disruption of membrane integrity in Escherichia coli MG1655 assessed as increase in PI uptake at 16 ug/ml measured every 15 mins for 6 hrs by SYTO9/PI staining based fluorometric analysis; conditions: dose 16.0 µg/ml
Cell membrane [12] = test: Disruption of membrane integrity in Staphylococcus aureus ATCC 25923 assessed as increase in PI uptake at 16 ug/ml measured every 15 mins for 6 hrs by SYTO9/PI staining based fluorometric analysis; format: subcellular; conditions: dose 16.0 µg/ml
Cell membrane [13] = test: Disruption of membrane integrity in Enterococcus faecalis ATCC 19433 assessed as increase in PI positive cells at 16 ug/ml measured after 1 hr by SYTO9/PI staining based confocal laser scanning microscope analysis; format: subcellular; conditions: dose 16.0 µg/ml
Cell membrane [14] = test: Disruption of membrane integrity in Bacillus subtilis ATCC 6633 assessed as increase in PI positive cells at 16 ug/ml measured after 1 hr by SYTO9/PI staining based confocal laser scanning microscope analysis; format: subcellular; conditions: dose 16.0 µg/ml
Cell membrane [15] = test: Disruption of membrane integrity in Acinetobacter baumannii ATCC 17978 assessed as increase in PI positive cells at 16 ug/ml measured after 1 hr by SYTO9/PI staining based confocal laser scanning microscope analysis; conditions: dose 16.0 µg/ml
Cell membrane [16] = test: Disruption of membrane integrity in Escherichia coli MG1655 assessed as increase in PI positive cells at 16 ug/ml measured after 1 hr by SYTO9/PI staining based confocal laser scanning microscope analysis; format: subcellular; conditions: dose 16.0 µg/ml
Cell membrane [17] = test: Disruption of membrane integrity in Pseudomonas aeruginosa ATCC 27853 assessed as increase in PI positive cells at 16 ug/ml measured after 1 hr by SYTO9/PI staining based confocal laser scanning microscope analysis; format: subcellular; conditions: dose 16.0 µg/ml
Cell membrane [18] = test: Disruption of membrane integrity in Staphylococcus aureus ATCC 25923 assessed as increase in PI positive cells at 16 ug/ml measured after 1 hr by SYTO9/PI staining based confocal laser scanning microscope analysis; format: subcellular; conditions: dose 16.0 µg/ml
[19] = Hemolytic activity against human RBC at 1 ug/ml incubated for 30 mins (reference value: 0%); format: toxicity, cell-based, Erythrocyte; conditions: human red blood cells (erythrocytes), at 1 µg/mL, read-out: Activity
[20] = Hemolytic activity against human RBC at 2 ug/ml incubated for 30 mins (reference value: 0%); format: toxicity, cell-based, Erythrocyte; conditions: human red blood cells (erythrocytes), at 2 µg/mL, read-out: Activity
[21] = Hemolytic activity against human RBC at 4 ug/ml incubated for 30 mins (reference value: 0%); format: toxicity, cell-based, Erythrocyte; conditions: human red blood cells (erythrocytes), at 4 µg/mL, read-out: Activity
[22] = Hemolytic activity against human RBC at 8 ug/ml incubated for 30 mins (reference value: 0%); format: toxicity, cell-based, Erythrocyte; conditions: human red blood cells (erythrocytes), at 8 µg/mL, read-out: Activity
[23] = Hemolytic activity against human RBC at 16 ug/ml incubated for 30 mins relative to control; format: toxicity, cell-based, Erythrocyte; conditions: human red blood cells (erythrocytes), at 16 µg/mL, read-out: Activity
[24] = Hemolytic activity against human RBC at 32 ug/ml incubated for 30 mins (reference value: 0%); format: toxicity, cell-based, Erythrocyte; conditions: human red blood cells (erythrocytes), at 32 µg/mL, read-out: Activity
[25] = Hemolytic activity against human RBC at 64 ug/ml incubated for 30 mins (reference value: 0%); format: toxicity, cell-based, Erythrocyte; conditions: human red blood cells (erythrocytes), at 64 µg/mL, read-out: Activity
Cell membrane [26] = test: Disruption of membrane integrity in Acinetobacter baumannii ATCC 17978 assessed as increase in PI uptake at 16 ug/ml measured after 1 hr by SYTO9/PI staining based fluorometric analysis; format: subcellular; conditions: dose 16.0 µg/ml
Cell membrane [27] = test: Disruption of membrane integrity in Bacillus subtilis ATCC 6633 assessed as increase in PI uptake at 16 ug/ml measured after 1 hr by SYTO9/PI staining based fluorometric analysis; format: subcellular; conditions: dose 16.0 µg/ml
Cell membrane [28] = test: Disruption of membrane integrity in Enterococcus faecalis ATCC 19433 assessed as increase in PI uptake at 16 ug/ml measured after 1 hr by SYTO9/PI staining based fluorometric analysis; format: subcellular; conditions: dose 16.0 µg/ml
Cell membrane [29] = test: Disruption of membrane integrity in Escherichia coli MG1655 assessed as increase in PI uptake at 16 ug/ml measured after 1 hr by SYTO9/PI staining based fluorometric analysis; format: subcellular; conditions: dose 16.0 µg/ml
Cell membrane [30] = test: Disruption of membrane integrity in Pseudomonas aeruginosa ATCC 27853 assessed as increase in PI uptake at 16 ug/ml measured after 1 hr by SYTO9/PI staining based fluorometric analysis; format: subcellular; conditions: dose 16.0 µg/ml
Cell membrane [31] = test: Disruption of membrane integrity in Staphylococcus aureus ATCC 25923 assessed as increase in PI uptake at 16 ug/ml measured after 1 hr by SYTO9/PI staining based fluorometric analysis; conditions: dose 16.0 µg/ml

N=C(N)NCCCCCCCCN(CCCCCCCCNC(=N)NCC1CC1)C(=O)N(CCCCCCCCNC(=N)N)CCCCCCCCNC(=N)NCC1CC1
Activity (Lipid bilayer [1]): Active
Activity (Cell membrane [2]): Active
Activity (Lipid bilayer [3]): Active
Papp at 5 h [4]: 1.88 ×10⁻⁶ cm/s
R% [5]: 46.1%
Papp at 5 h [6]: 0.74 ×10⁻⁶ cm/s
R% [7]: 42.4%
Activity (Cell membrane [8]): Active
Activity (Cell membrane [9]): Active
Activity (Cell membrane [10]): Active
Activity (Cell membrane [11]): Active
Activity (Cell membrane [12]): Active
Activity (Cell membrane [13]): Active
Activity (Cell membrane [14]): Active
Activity (Cell membrane [15]): Active
Activity (Cell membrane [16]): Active
Activity (Cell membrane [17]): Active
Activity (Cell membrane [18]): Active
hemolysis at 0.5 h, 1 ug/ml [19]: 0%
hemolysis at 0.5 h, 2 ug/ml [20]: 0.2%
hemolysis at 0.5 h, 4 ug/ml [21]: 0.4%
hemolysis at 0.5 h, 8 ug/ml [22]: 0.8%
hemolysis at 0.5 h, 16 ug/ml [23]: 1.2%
hemolysis at 0.5 h, 32 ug/ml [24]: 2%
hemolysis at 0.5 h, 64 ug/ml [25]: 3.4%
Activity (Cell membrane [26]): Active
Activity (Cell membrane [27]): Active
Activity (Cell membrane [28]): Active
Activity (Cell membrane [29]): Active
Activity (Cell membrane [30]): Active
Activity (Cell membrane [31]): Active
